Assay results as given in patent publication US20260274833A1 (NiKang Therapeutics, Inc., priority 2022, published 2026).

The compounds below were run against T1, CDK2 (Homo sapiens, UniProt P24941) (assay: Phospho-RB measurement in OVCAR3 cells (HTRF phospho-RB cellular kit)). Details: inhibition of RB phosphorylation at S807/811 (HTRF, TR-FRET ratio 665/620), 24 h compound treatment, 0.3 to 10,000 nM.
T1 construct: endogenous in cells; host or cells: OVCAR3 cells
Type: cell-based
Summary of the method: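 IC50 came from a four-parameter logistic fit of the DMSO-normalized TR-FRET ratio (665/620 nm). That ratio reflects RB phosphorylation at S807/811, read with an HTRF antibody pair 4 h after adding lysate at room temperature.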

IC50 | SMILES
9410 nM | O=S1(=O)CC2(CC(Nc3nccc(-c4sc(C56CC(C5)C6)nc4-c4cccc(NS(=O)(=O)N5CC6CCC5CC6)c4F)n3)C2)C1 [Example 267, (1s,4s)-N-(3-(2-(bicyclo[1.1.1]pentan-]-yl)-5-(2-((2,2-dioxido-2-thiaspiro-[3.3]heptan-6-yl)amino)pyrimidin-4-yl)thiazol-4-yl)-2-fluorophenyl)-2-azabicyclo[2.2.2] octane-2-sulfonamide]
111 nM | O=S1(=O)CC2(CC(Nc3nccc(-c4sc(C56CC(F)(C5)C6)nc4-c4cccc(NS(=O)(=O)N5CCc6ccc(C(F)(F)F)cc65)c4F)n3)C2)C1 [Example 277, N-(3-(5-(2-((2,2-dioxido-2-thiaspiro-[3.3]-heptan-6-yl)amino)pyrimidin-4-yl)-2-(3-fluorobicyclo [1.1.1]pentan-1-yl)-thiazol-4-yl)-2-fluorophenyl)-6-(trifluoromethyl) indoline-1-sulfonamide]
574 nM | O=S1(=O)CC2(CC(Nc3nccc(-c4sc(C5(C(F)(F)F)CC5)nc4-c4cccc(NS(=O)(=O)N5CCc6ccc(C(F)(F)F)cc65)c4F)n3)C2)C1 [Example 286, N-(3-(5-(2-((2,2-dioxido-2-thiaspiro-[3.3]heptan-6-yl)amino)pyrimidin-4-yl)-2-(1-(trifluoromethyl)cyclopropyl)-thiazol-4-yl)-2-fluorophenyl)-6-(trifluoromethyl) indoline-1-sulfonamide]
2670 nM | CNCCOc1cccc2c1CN(S(=O)(=O)Nc1cccc(-c3nc(C(C)(C)C)sc3-c3ccnc(NC4CCN(S(C)(=O)=O)CC4)n3)c1F)C2 [Example 164, N-(3-(2-(tert-butyl)-5-(2-((1-(methylsulfonyl)-piperidin-4-yl)amino)-pyrimidin-4-yl)thiazol-4-yl)-2-fluoro-phenyl)-4-(2-(methylamino)-ethoxy)-isoindoline-2-sulfonamide]
435 nM | CNc1cccc2c1N(S(=O)(=O)Nc1cccc(-c3nc(C(C)(C)C)sc3-c3ccnc(NC4CCN(S(C)(=O)=O)CC4)n3)c1F)CC2 [Example 258, N-(3-(2-(tert-butyl)-5-(2-((1-(methylsulfonyl)-piperidin-4-yl)amino)-pyrimidin-4-yl)thiazol-4-yl)-2-fluoro-phenyl)-7-(methylamino) indoline-1-sulfonamide]
298 nM | CC(C)(c1nc(-c2cccc(NS(=O)(=O)N3CCc4ccc(C(F)(F)F)cc43)c2F)c(-c2ccnc(N[C@H]3CC[C@H](S(C)(=O)=O)CC3)n2)s1)C(F)(F)F [Example 290, N-(2-fluoro-3-(5-(2-(((1r,4r)-4-(methylsulfonyl)cyclohexyl)amino)-pyrimidin-4-yl)-2-(1,1,1-trifluoro-2-methylpropan-2-yl)thiazol-4-yl)phenyl)-6-(trifluoromethyl) indoline-1-sulfonamide]
456 nM | CC(C)(C)c1nc(-c2cccc(NS(=O)(=O)N3CCc4ccc(C#N)cc43)c2F)c(-c2ccnc(Nc3ccc(N4CCNCC4)cc3)n2)s1 [Example 225, N-(3-(2-(tert-butyl)-5-(2-((4-(piperazin-1-yl)phenyl)amino)pyrimidin-4-yl)-thiazol-4-yl)-2-fluorophenyl)-6-cyano-indoline-1-sulfonamide]
247 nM | CC(C)(C)c1nc(-c2cccc(NS(=O)(=O)N3CCc4ccc(C#N)cc43)c2F)c(-c2ccnc(NC3CC4(C3)CN(S(C)(=O)=O)C4)n2)s1 [Example 200, N-(3-(2-(tert-butyl)-5-(2-((2-(methylsulfonyl)-2-azaspiro [3.3]heptan-6-yl)amino)pyrimidin-4-yl)thiazol-4-yl)-2-fluorophenyl)-6-cyanoindoline-1-sulfonamide]
194 nM | CC(C)(C)c1nc(-c2cccc(NS(=O)(=O)N3Cc4ccncc4C3)c2F)c(-c2ccnc(NC3CC4(C3)CS(=O)(=O)C4)n2)s1 [Example 187, N-(3-(2-(tert-butyl)-5-(2-((2,2-dioxido-2-thiaspiro[3.3]heptan-6-yl)amino)-pyrimidin-4-yl)thiazol-4-yl)-2-fluoro-phenyl)-1,3-dihydro-2H-pyrrolo[3,4-c]-pyridine-2-sulfonamide]
1450 nM | CC(C)(C)c1nc(-c2cccc(NS(=O)(=O)N3Cc4cccc(OCCN)c4C3)c2F)c(-c2ccnc(NC3CCN(S(C)(=O)=O)CC3)n2)s1 [Example 244, 4-(2-aminoethoxy)-N-(3-(2-(tert-butyl)-5-(2-((1-(methylsulfonyl)piperidin-4-yl)amino)-pyrimidin-4-yl)thiazol-4-yl)-2-fluorophenyl)-isoindoline-2-sulfonamide]

Second part, the compound before the results:

SMILES | IC50
O=S1(=O)CC2(CC(Nc3nccc(-c4sc(C56CC(C5)C6)nc4-c4cccc(NS(=O)(=O)N5CCc6ccccc6C5)c4F)n3)C2)C1 [Example 46, N-(3-(2-(bicyclo [1.1.1]pentan-1-yl)-5-(2-((2,2-dioxido-2-thiaspiro[3.3]heptan-6-yl)amino)-pyrimidin-4-yl)thiazol-4-yl)-2-fluorophenyl)-3,4-dihydroisoquinoline-2(1H)-sulfonamide] | 476 nM
C#Cc1ccc2c(c1)N(S(=O)(=O)Nc1cccc(-c3nc(C45CC(C4)C5)sc3-c3ccnc(NC4CC5(C4)CS(=O)(=O)C5)n3)c1F)CC2 [Example 26, N-(3-(2-(bicyclo [1.1.1]pentan-1-yl)-5-(2-((2,2-dioxido-2-thiaspiro[3.3]heptan-6-yl)amino)-pyrimidin-4-yl)thiazol-4-yl)-2-fluorophenyl)-6-ethynylindoline-1-sulfonamide] | 160 nM
O=S1(=O)CC2(CC(Nc3nccc(-c4sc(C56CC(C5)C6)nc4-c4cccc(NS(=O)(=O)N5CCc6ccc(C(F)(F)F)cc65)c4F)n3)C2)C1 [Example 19, N-(3-(2-(bicyclo [1.1.1]pentan-1-yl)-5-(2-((2,2-dioxido-2-thiaspiro[3.3]heptan-6-yl)amino)-pyrimidin-4-yl)thiazol-4-yl)-2-fluorophenyl)-6-(trifluoromethyl)-indoline-1-sulfonamide] | 120 nM
CC(C)(C)c1nc(-c2cccc(NS(=O)(=O)N3Cc4cc(F)c(F)cc4C3)c2F)c(-c2ccnc(NC3CCN(S(C)(=O)=O)CC3)n2)s1 [Example 77] | 367 nM
COc1cccc2c1CN(S(=O)(=O)Nc1cccc(-c3nc(C(C)(C)C)sc3-c3ccnc(NC4CCN(S(=O)(=O)N5CCNCC5)CC4)n3)c1F)C2 [Example 143, N-(3-(2-(tert-butyl)-S-(2-((1-(piperazin-1-ylsulfonyl)piperidin-4-yl)amino)-pyrimidin-4-yl)thiazol-4-yl)-2-fluoro-phenyl)-4-methoxy-isoindoline-2-sulfonamide] | 136 nM
Cn1cc2c(n1)CN(S(=O)(=O)Nc1cccc(-c3nc(C(C)(C)C)sc3-c3ccnc(NC4CCN(S(C)(=O)=O)CC4)n3)c1F)C2 [Example 86, N-(3-(2-(tert-butyl)-5-(2-((1-(methylsulfonyl)-piperidin-4-yl)amino)-pyrimidin-4-yl)thiazol-4-yl)-2-fluoro-phenyl)-2-methyl-2,6-dihydro-pyrrolo[3,4-c]pyrazole-5(4H)-sulfonamide] | 484 nM
COc1cccc2c1CN(S(=O)(=O)Nc1cccc(-c3nc(C4(C)CCOCC4)sc3-c3ccnc(N[C@H]4[C@@H]5CS(=O)(=O)C[C@@H]54)n3)c1F)C2 [Example 7, N-(3-(5-(2-(((1R, 5S,6r)-3,3-dioxido-3-thiabicyclo[3.1.0]hexan-6-yl)amino)-pyrimidin-4-yl)-2-(4-methyltetrahydro-2H-pyran-4-yl)thiazol-4-yl)-2-fluorophenyl)-4-methoxyisoindoline-2-sulfonamide] | 9.2 nM
CNCc1ccc2c(c1)N(S(=O)(=O)Nc1cccc(-c3nc(C(C)(C)C)sc3-c3ccnc(NC4CCN(S(C)(=O)=O)CC4)n3)c1F)CC2 [Example 160, N-(3-(2-(tert-butyl)-5-(2-((1-(methylsulfonyl)-piperidin-4-yl)amino)-pyrimidin-4-yl)thiazol-4-yl)-2-fluoro-phenyl)-6-((methylamino)methyl)-indoline-1-sulfonamide] | 4040 nM
O=S1(=O)CC2(CC(Nc3nccc(-c4sc(N5C6CCC5CN(CC(F)(F)F)C6)nc4-c4cccc(NS(=O)(=O)N5CCc6ccc(C(F)(F)F)cc65)c4F)n3)C2)C1 [Example 39, N-(3-(5-(2-((2,2-dioxido-2-thiaspiro-[3.3]-heptan-6-yl)amino)pyrimidin-4-yl)-2-(3-(2,2,2-trifluoroethyl)-3,8-diazabicyclo[3.2.1]-octan-8-yl)thiazol-4-yl)-2-fluorophenyl)-6-(trifluoromethyl)-indoline-1-sulfonamide] | 752 nM
C[C@H]1Cc2ccccc2N1S(=O)(=O)Nc1cccc(-c2nc(C(C)(C)C)sc2-c2ccnc(NC3CCN(S(=O)(=O)N4CCNCC4)CC3)n2)c1F [Example 147, (S)-N-(3-(2-(tert-butyl)-5-(2-((1-(piperazin-1-ylsulfonyl)piperidin-4-yl)amino)pyrimidin-4-yl)thiazol-4-yl)-2-fluorophenyl)-2-methylindoline-1-sulfonamide] | 458 nM
CC(C)(C)c1nc(-c2cccc(NS(=O)(=O)N3Cc4ccncc4C3)c2F)c(-c2ccnc(NC3CCN(S(C)(=O)=O)CC3)n2)s1 [Example 103, N-(3-(2-(tert-butyl)-5-(2-((1-(methylsulfonyl)piperidin-4-yl)amino)-pyrimidin-4-yl)thiazol-4-yl)-2 fluorophenyl)-1,3-dihydro-2H-pyrrolo[3,4-c] pyridine-2-sulfonamide] | 142 nM
CN(C)Cc1cccc2c1CCN2S(=O)(=O)Nc1cccc(-c2nc(C(C)(C)C)sc2-c2ccnc(NC3CCN(S(C)(=O)=O)CC3)n2)c1F [Example 133, N-(3-(2-(tert-butyl)-5-(2-((1-(methylsulfonyl)-piperidin-4-yl)amino)-pyrimidin-4-yl)thiazol-4-yl)-2-fluoro-phenyl)-4-((dimethylamino)methyl)-indoline-1-sulfonamide] | 331 nM
Cn1ncc2c1CN(S(=O)(=O)Nc1cccc(-c3nc(C(C)(C)C)sc3-c3ccnc(NC4CCN(S(C)(=O)=O)CC4)n3)c1F)C2 [Example 85, N-(3-(2-(tert-butyl)-5-(2-((1-(methylsulfonyl)-piperidin-4-yl)amino)-pyrimidin-4-yl)thiazol-4-yl)-2-fluoro-phenyl)-1-methyl-4,6-dihydro-pyrrolo[3,4-c]pyrazole-5(1H)-sulfonamide] | 394 nM
